# Tests used:
# Assay type in all cases: functional
# Details in all cases: read-out: IZ
# [1] = system: Candida albicans; experiment: Antifungal activity against Candida albicans at 100 ug/ml by cup-plate method
# [2] = system: Bacillus subtilis; experiment: Antibacterial activity against Bacillus subtilis at 100 ug/ml by cup plate method
# [3] = system: Staphylococcus aureus; experiment: Antibacterial activity against Staphylococcus aureus at 100 ug/ml by cup-plate method
# [4] = system: Pseudomonas aeruginosa; experiment: Antibacterial activity against Pseudomonas aeruginosa at 100 ug/ml by cup-plate method
# [5] = system: Escherichia coli; experiment: Antibacterial activity against Escherichia coli at 100 ug/ml by cup-plate method
SMILES,zone of inhibition at 100 µg/mL [1],zone of inhibition at 100 µg/mL [2],zone of inhibition at 100 µg/mL [3],zone of inhibition at 100 µg/mL [4],zone of inhibition at 100 µg/mL [5]
O=C(Nc1ccc([N+](=O)[O-])cc1)c1cn(CCO)c2c(cc(O)c3ncccc32)c1=O,0 mm,7 mm,8 mm,6 mm,6 mm
C[C@@H]1[C@H](O)[C@@H](C)/C=C/C=C/C=C/C=C/C=C/C=C/C=C/[C@H](O[C@@H]2O[C@H](C)[C@@H](O)[C@H](N)[C@@H]2O)C[C@@H]2O[C@](O)(C[C@@H](O)C[C@@H](O)[C@H](O)CC[C@@H](O)C[C@@H](O)CC(=O)O[C@H]1C)C[C@H](O)[C@H]2C(=O)O [AMPHOTERICIN B],9 mm,–,–,–,–
O=C(Nc1ccccc1)c1cn(CCO)c2c(cc(Cl)c3ncccc32)c1=O,5 mm,–,12 mm,–,12 mm
Cc1cccc(NC(=S)NC(=O)c2cn(CCO)c3c(cc(O)c4ncccc43)c2=O)c1,3 mm,8 mm,9 mm,9 mm,9 mm
COc1ccccc1NS(=O)(=O)c1ccc(NC(=O)c2cn(CCO)c3c(cc(O)c4ncccc43)c2=O)cc1,1 mm,8 mm,6 mm,6 mm,0 mm
O=C(Nc1cccc(Cl)c1)c1cn(CCO)c2c(cc(O)c3ncccc32)c1=O,0 mm,6 mm,0 mm,4 mm,4 mm
Cc1ccccc1NC(=O)c1cn(CCO)c2c(cc(O)c3ncccc32)c1=O,0 mm,–,–,–,9 mm
O=C(NC(=S)Nc1ccccc1[N+](=O)[O-])c1cn(CCO)c2c(cc(O)c3ncccc32)c1=O,1 mm,5 mm,0 mm,4 mm,5 mm
COc1ccc(NC(=O)c2cn(CCO)c3c(cc(O)c4ncccc43)c2=O)cc1,5 mm,12 mm,10 mm,10 mm,11 mm
O=C(NC(=S)Nc1cccc([N+](=O)[O-])c1)c1cn(CCO)c2c(cc(Cl)c3ncccc32)c1=O,1 mm,6 mm,8 mm,8 mm,0 mm
Cc1cccc(NC(=S)NC(=O)c2cn(CCO)c3c(cc(Cl)c4ncccc43)c2=O)c1,4 mm,9 mm,10 mm,10 mm,11 mm
O=C(Nc1ccc(S(=O)(=O)Nc2cccc(Cl)c2)cc1)c1cn(CCO)c2c(cc(Cl)c3ncccc32)c1=O,4 mm,9 mm,11 mm,10 mm,10 mm
COc1ccc(NC(=O)c2cn(CCO)c3c(cc(Cl)c4ncccc43)c2=O)cc1,2 mm,6 mm,6 mm,6 mm,0 mm
O=C(Nc1ccc(S(=O)(=O)Nc2cccc([N+](=O)[O-])c2)cc1)c1cn(CCO)c2c(cc(O)c3ncccc32)c1=O,2 mm,8 mm,8 mm,7 mm,8 mm
O=C(NC(=S)Nc1cccc(Cl)c1)c1cn(CCO)c2c(cc(O)c3ncccc32)c1=O,3 mm,10 mm,9 mm,9 mm,10 mm
Cc1cccc(NC(=O)c2cn(CCO)c3c(cc(Cl)c4ncccc43)c2=O)c1,4 mm,9 mm,10 mm,10 mm,10 mm
O=C(NC(=S)Nc1ccccc1)c1cn(CCO)c2c(cc(O)c3ncccc32)c1=O,4 mm,–,–,10 mm,–
O=C(Nc1ccc(Cl)cc1)c1cn(CCO)c2c(cc(Cl)c3ncccc32)c1=O,–,7 mm,–,6 mm,6 mm
O=C(Nc1ccc([N+](=O)[O-])cc1)c1cn(CCO)c2c(cc(Cl)c3ncccc32)c1=O,4 mm,–,–,–,9 mm
COc1ccccc1NS(=O)(=O)c1ccc(NC(=O)c2cn(CCO)c3c(cc(Cl)c4ncccc43)c2=O)cc1,–,–,–,5 mm,5 mm
